Where “and” joins values, the source holds several entries; their conditions need not be identical. Identical values can stand only once. Entries after “also recorded” stand apart in the source; their conditions may differ.

In experiment [1] the target is T1, ShKAI2iB (Striga hermonthica, UniProt A0A0M3PN85, C270S). Put plainly: Intrinsic fluorescence binding assay. On the procedure: The coding sequence cDNA of ShKAI2iB was amplified by PCR using total complementary DNA from the total RNA of 1-day conditioned Striga seeds. ShKAI2iB (1–270, C270S) was designed for crystallization and other assays. For expression in Escherichia coli, the PCR product was cloned into an expression vector pGEX-6P-3 (GE Healthcare) and subsequently transformed into E. coli strain Rosetta (DE3) (Novagen). IPTG-induced overexpression was performed for 20 h at 25 °C. […] Purified ShKAI2iB was dialyzed against buffer B (20 mM HEPES-NaOH, pH 8.0, 50 mM NaCl) for the ITC experiments and the intrinsic fluorescence assay.
KD values were also determined by using intrinsic fluorescence assays. Fluorescence measurements were conducted as previously described[16] with minor modifications. […] Flat-bottomed, black 96 well plates were used to read fluorescence intensity using a Tecan Infinite M1000 monochromator. Measurements were taken at room temperature under a 285 nm excitation wavelength, a 333 nm emission wavelength, 50 flashes, and a 400 Hz flash frequency with a gain of 70 and a 2 μs integration time. ΔF (rfu, relative fluorescence units) was calculated by subtracting the fluorescence of the DMSO control. […]

For experiment [2], the system named is S. hermonthica. Also on record: method as in PMID 26228149. The following applies: cited from earlier work.
Experiment [3] concerns the target ShKAI2iB L142A (Striga hermonthica, UniProt A0A0M3PN85, C270S/L142A). Put plainly: ITC binding to ShKAI2iB L142A mutant. On the procedure: (§1) The coding sequence cDNA of ShKAI2iB was amplified by PCR using total complementary DNA from the total RNA of 1-day conditioned Striga seeds. ShKAI2iB (1–270, C270S) was designed for crystallization and other assays. For expression in Escherichia coli, the PCR product was cloned into an expression vector pGEX-6P-3 (GE Healthcare) and subsequently transformed into E. coli strain Rosetta (DE3) (Novagen). IPTG-induced overexpression was performed for 20 h at 25 °C. For purification, cell pellets were lysed by sonication in buffer A (20 mM Tris-HCl, pH 8.0, 0.3 M NaCl, 1 mM DTT), and the soluble fraction separated by centrifugation was purified using Glutathione Sepharose 4B resin (GE Healthcare) and a Resource Q anion-exchange column (GE Healthcare). ShKAI2iB mutants were overexpressed and purified with the same procedure as wild-type protein. For crystallization, buffer exchange accompanied by concentration was performed using Vivaspin 20 (5,000 MWCO PES) (Sartorius). Purified ShKAI2iB was dialyzed against buffer B (20 mM HEPES-NaOH, pH 8.0, 50 mM NaCl) for the ITC experiments and the intrinsic fluorescence assay.
(§2) Binding assays of ShKAI2iB and KAR1 were performed using a MicroCal iTC200 isothermal titration calorimeter (GE Healthcare). Prior to the ITC experiments, concentrated ShKAI2iB was dialyzed against a buffer consisting of 20 mM HEPES-NaOH, pH 8.0, and 50 mM NaCl to remove dithiothreitol and then adjusted to a final concentration of 150 μM. The sample cell was filled with ShKAI2iB solution (204 μl). […] of 3 mM KAR1 or 3 mM rac-GR24 (equimolar mixture of two enantiomers: GR24^5DS and GR24^ent-5DS) was injected into the prepared protein solution by 20 consecutive 2.0 μl aliquots at 150 s intervals at 10 °C. The first injection volume was 0.4 μl, and the observed thermal peak was excluded from the data analyses. Duplicate experiments were performed independently. A negative control was made by titrating 3 mM KAR1 into a buffer (20 mM HEPES, pH 8.0, 50 mM NaCl) in the same manner. Data fitting was performed using Origin software in the “one set of sites” mode. The dissociation constant (KD) values were calculated from duplicate thermograms (mean ± S.D.).
(§3) Supplementary Figure 4. Results of ITC experiments between ShKAI2iB mutants and KAR1. ITC experiments were performed b y titrating KAR1 into ShKA I2iB mutants (a, F194A; b, S95A; c, L142A; d, F190L; e, V139 L) or into buffer as a negat ive control (f). The upper panel illustrates raw ITC data. The bottom panel represents data of the enthalpy cha nge deri ved fr om the upper panel. Corres ponding […]
(§4) (1 picture or pasted object on this page, not shown here)

Experiment [4] has as its target T1, ShKAI2iB. Put plainly: ITC binding to ShKAI2iB (wild type). On the procedure: as §1, §2
Experiment [5] concerns ShKAI2iB S95A. Briefly: ITC binding to ShKAI2iB S95A mutant. Also on record: species or system Striga hermonthica. As for the experimental part: as §1
Binding assays of ShKAI2iB and KAR1 were performed using a MicroCal iTC200 isothermal titration calorimeter (GE Healthcare). […] The dissociation constant (KD) values were calculated from duplicate thermograms (mean ± S.D.). […]

Experiment [6] has as its target ShKAI2iB F190L (Striga hermonthica, UniProt A0A0M3PN85, C270S/F190L). Briefly: ITC binding to ShKAI2iB F190L mutant. On the procedure:
as §1
(§5) Binding assays of ShKAI2iB and KAR1 were performed using a MicroCal iTC200 isothermal titration calorimeter (GE Healthcare). Prior to the ITC experiments, concentrated ShKAI2iB was dialyzed against a buffer consisting of 20 mM HEPES-NaOH, pH 8.0, and 50 mM NaCl to remove dithiothreitol and then adjusted to a final concentration of 150 μM. The sample cell was filled with ShKAI2iB solution (204 μl). Two microliters of 3 mM KAR1 or 3 mM rac-GR24 (equimolar mixture of two enantiomers: GR24^5DS and GR24^ent-5DS) was injected into the prepared protein solution by 20 consecutive 2.0 μl aliquots at 150 s intervals at 10 °C. The first injection volume was 0.4 μl, and the observed thermal peak was excluded from the data analyses. Duplicate experiments were performed independently. […] The dissociation constant (KD) values were calculated from duplicate thermograms (mean ± S.D.). […]

For experiment [7], the system named is KAI2. Also on record: method as in PMID 25126711. Conditions: cited from earlier work.
The target of experiment [8] is ShKAI2iB V139L (Striga hermonthica, UniProt A0A0M3PN85, C270S/V139L). Put plainly: ITC binding to ShKAI2iB V139L mutant. As for the experimental part: as §1, §5
The target of experiment [9] is ShKAI2iB F194A (Striga hermonthica, UniProt A0A0M3PN85, C270S/F194A). Briefly: ITC binding to ShKAI2iB F194A mutant. On the procedure:
as §1, §2, §3, §4

Experiment [10] addresses T1, ShKAI2iB. Briefly: Enzymatic degradation (hydrolysis) assay of rac-GR24 with HPLC. The following applies: 10 μM rac-GR24, 6 μg ml^−1 protein, 3 h, 37 °C. It is filed as biochemical. On the procedure: The enzymatic degradation assay of rac-GR24 was performed in a total volume of 1 ml of PBS buffer containing 10 μM rac-GR24. Purified OsD14[23] and ShKAI2iB were added at a final concentration of 6 μg ml^−1 and incubated for 3 h at 37 °C. Then 100 mg of NaCl and 100 μl of 0.1 M HCl were added to each reaction solution, and the reaction solutions were extracted with 400 μl of ethyl acetate three times. The ethyl acetate layers were combined and dried in vacuo and dissolved in 50 μl of methanol. For each layer, 10 μl was applied to the HPLC analyses. The reverse-phase chromatographic separation was performed on a Jasco HPLC system that was equipped with an HPLC pump of model PU 2080 (Jasco) and a photodiode array detector MD1510 (Jasco). The system was controlled by the ChromNAV (Ver. 1.18.07) software program (Jasco). The analytical column was a CAPCELL CORE C18 (Φ 4.6 × 100 mm, Shiseido). The analytes were eluted under gradient conditions using methanol ramped linearly to 90% methanol at 9 min and held for 4.5 min before resetting to the original conditions. The contents of rac-GR24 was calculated by the peak area at the retention time 6.2 min with the regression equation obtained from the calibration curve produced using a dilution series of rac-GR24 solution. […] Statistical differences between the groups were calculated with ANOVA analysis followed by Tukey–Kramer test.

The subject of experiment [11] is KAI2. Also on record: method as in PMID 25126711. The following applies: cited from earlier work. This is another data set of the same source.

ShKAI2iB V139L, sequence (A0A0M3PN85 1-270 V139L/C270S): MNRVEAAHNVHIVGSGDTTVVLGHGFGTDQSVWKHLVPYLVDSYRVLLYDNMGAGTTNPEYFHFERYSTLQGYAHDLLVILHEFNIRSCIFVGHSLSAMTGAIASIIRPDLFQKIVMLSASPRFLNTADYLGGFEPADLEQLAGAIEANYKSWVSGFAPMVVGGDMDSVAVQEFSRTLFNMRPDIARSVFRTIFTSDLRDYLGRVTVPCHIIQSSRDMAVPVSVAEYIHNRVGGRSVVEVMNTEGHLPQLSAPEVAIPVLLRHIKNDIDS
ShKAI2iB L142A, sequence (A0A0M3PN85 1-270 L142A/C270S): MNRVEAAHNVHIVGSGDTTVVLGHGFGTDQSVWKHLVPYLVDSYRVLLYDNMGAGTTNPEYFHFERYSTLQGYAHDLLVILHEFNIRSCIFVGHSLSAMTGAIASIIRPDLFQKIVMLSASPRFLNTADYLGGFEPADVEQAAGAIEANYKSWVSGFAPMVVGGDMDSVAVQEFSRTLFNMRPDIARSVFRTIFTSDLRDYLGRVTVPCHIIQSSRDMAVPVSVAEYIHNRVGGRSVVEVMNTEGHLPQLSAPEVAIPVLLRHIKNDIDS
T1 sequence (A0A0M3PN85 1-270 C270S): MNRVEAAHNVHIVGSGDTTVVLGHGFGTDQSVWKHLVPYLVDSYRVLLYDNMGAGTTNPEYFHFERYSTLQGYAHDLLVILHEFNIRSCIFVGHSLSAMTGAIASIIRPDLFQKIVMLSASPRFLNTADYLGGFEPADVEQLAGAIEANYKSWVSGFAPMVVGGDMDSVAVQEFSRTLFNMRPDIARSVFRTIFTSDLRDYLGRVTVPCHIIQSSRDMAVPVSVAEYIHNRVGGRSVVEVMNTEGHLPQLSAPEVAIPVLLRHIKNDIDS
ShKAI2iB F190L, sequence (A0A0M3PN85 1-270 F190L/C270S): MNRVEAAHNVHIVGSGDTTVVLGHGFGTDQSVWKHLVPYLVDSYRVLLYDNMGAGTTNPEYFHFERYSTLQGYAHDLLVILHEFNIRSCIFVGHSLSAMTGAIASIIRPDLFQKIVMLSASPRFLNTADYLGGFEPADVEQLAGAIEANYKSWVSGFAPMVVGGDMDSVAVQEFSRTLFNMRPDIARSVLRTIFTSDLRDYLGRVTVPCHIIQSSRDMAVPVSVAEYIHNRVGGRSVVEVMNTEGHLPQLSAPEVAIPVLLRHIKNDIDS
ShKAI2iB F194A, sequence (A0A0M3PN85 1-270 F194A/C270S): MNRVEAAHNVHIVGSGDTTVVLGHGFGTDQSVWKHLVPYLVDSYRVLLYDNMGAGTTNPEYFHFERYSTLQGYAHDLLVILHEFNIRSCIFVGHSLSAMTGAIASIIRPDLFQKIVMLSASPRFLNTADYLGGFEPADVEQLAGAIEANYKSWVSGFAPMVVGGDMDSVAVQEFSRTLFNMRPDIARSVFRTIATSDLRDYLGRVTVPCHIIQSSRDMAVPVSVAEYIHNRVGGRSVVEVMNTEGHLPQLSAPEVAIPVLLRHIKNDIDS

Consider `Cc1c2ccocc-2oc1=O` [KAR1, 3-methyl-2H-furo [2,3-c] pyran-2-one], for which the Kd (in general, the constant that tells how readily two partners part at equilibrium) in experiment [1] is 70 ± 3.4 µM; in [3] it was 196 ± 24 µM; in [4], 77.6 ± 3.4 µM; in experiment [8] (KD, ITC), 35.6 µM and 36 µM; in experiment [9] it was 107 ± 10 µM. Also, the “induction of germination of S. hermonthica” value in [2] is on record as “failed to induce germination”. The ΔG entry in experiment [3] (L142A mutant) is given as “–4.76 kcal/mol”; in experiment [4] (wild-type ShKAI2iB, ITC), “–5.35 kcal/mol”; in [6], “–4.75 kcal/mol”; in experiment [9] (F194A mutant), “–5.11 kcal/mol”. Moreover, the ΔH entry is listed as “–7.00 ± 0.70 kcal mol^–1” in experiment [3] (L142A mutant), “–11.71 ± 8.89 kcal mol^–1” in experiment [6], “–12.87 ± 0.03 kcal mol^–1” in [8] and “–13.24 ± 63.94 kcal mol^–1” in experiment [9] (F194A mutant). Also, the ΔS result is “–7.90 cal mol^–1 deg^–1” in experiment [3] (L142A mutant), “–24.6 cal mol^–1 deg^–1” in experiment [6], “–24.8 cal mol^–1 deg^–1” in experiment [8] and “–28.7 cal mol^–1 deg^–1” in experiment [9] (F194A mutant). The “N (number of sites)” value in [4] (wild-type ShKAI2iB, ITC) amounted to 0.91 ± 0.05. In addition, the “ΔS (entropy change)” value in [4] (wild-type ShKAI2iB, ITC, 10 °C) was “–3.99 cal mol^–1 deg^–1”. Moreover, in experiment [5], the “heat change in ITC (binding)” value is “almost no heat change; also recorded: abolishes binding”. Further, the “binding to KAI2” value in [7] is “able to bind”. In experiment [9] (F194A mutant), the “change of ITC result versus wild type” value is reported as “no significant change”.
As for `CC1=CC(OC=C2C(=O)OC3c4ccccc4CC23)OC1=O` (racemic) [rac-GR24], the “fluorescence change (binding)” value in experiment [1] (wild-type ShKAI2iB) is given as “no detectable heat change or fluorescence change”. Besides, the “hydrolysis by ShKAI2iB” value in experiment [10] was “not capable of hydrolyzing”; in experiment [10] (listed as GR24) it was “unable to bind and hydrolyze”. For the same molecule, in [4] (wild-type ShKAI2iB, 3 mM ligand titrated), the “heat change in ITC (binding)” value is given as “no detectable heat change”. In addition, in experiment [7], the “binding to KAI2” value is reported as “able to bind”. Further, the “hydrolysis by KAI2” value in experiment [11] was “exhibits hydrolytic activity”.
